Results: ChEMBL document CHEMBL1201862, “PubChem BioAssay data set” (2004)
The source made the active and inactive calls.

Assays:
[1] = target: DNA topoisomerase (Yersinia pestis, UniProt A0A2S9PM60); assay: Y. pestis Topo-I inhibitors, cleavage product readout, dose response, biochemical, cherry-pick (AID 588525)
[2] = test system: HeLa; assay: HeLa cell cytotoxicity, dose response, cytotoxicity control, 48 h, plate reader, cherry-picks (AID 504942); type: functional, cell-based; conditions: Homo sapiens
[3] = target: Acyl-homoserine lactone acylase PvdQ (Pseudomonas aeruginosa (strain LESB58), UniProt Q9I194); assay: P. aeruginosa PvdQ acylase inhibitors, dose response, biochemical, fluorescence, plate reader and imaging, cherry-picks (AID 493231)
[4] = target: T1, Hexokinase HKDC1 (Homo sapiens, UniProt Q2TB90); assay: SAR analysis of small molecule inhibitors of hexokinase domain containing I (HKDC1). [Related pubchem assays (depositor defined):AID493160, AID493190]; type: functional
T1 sequence (Q2TB90 whole entry): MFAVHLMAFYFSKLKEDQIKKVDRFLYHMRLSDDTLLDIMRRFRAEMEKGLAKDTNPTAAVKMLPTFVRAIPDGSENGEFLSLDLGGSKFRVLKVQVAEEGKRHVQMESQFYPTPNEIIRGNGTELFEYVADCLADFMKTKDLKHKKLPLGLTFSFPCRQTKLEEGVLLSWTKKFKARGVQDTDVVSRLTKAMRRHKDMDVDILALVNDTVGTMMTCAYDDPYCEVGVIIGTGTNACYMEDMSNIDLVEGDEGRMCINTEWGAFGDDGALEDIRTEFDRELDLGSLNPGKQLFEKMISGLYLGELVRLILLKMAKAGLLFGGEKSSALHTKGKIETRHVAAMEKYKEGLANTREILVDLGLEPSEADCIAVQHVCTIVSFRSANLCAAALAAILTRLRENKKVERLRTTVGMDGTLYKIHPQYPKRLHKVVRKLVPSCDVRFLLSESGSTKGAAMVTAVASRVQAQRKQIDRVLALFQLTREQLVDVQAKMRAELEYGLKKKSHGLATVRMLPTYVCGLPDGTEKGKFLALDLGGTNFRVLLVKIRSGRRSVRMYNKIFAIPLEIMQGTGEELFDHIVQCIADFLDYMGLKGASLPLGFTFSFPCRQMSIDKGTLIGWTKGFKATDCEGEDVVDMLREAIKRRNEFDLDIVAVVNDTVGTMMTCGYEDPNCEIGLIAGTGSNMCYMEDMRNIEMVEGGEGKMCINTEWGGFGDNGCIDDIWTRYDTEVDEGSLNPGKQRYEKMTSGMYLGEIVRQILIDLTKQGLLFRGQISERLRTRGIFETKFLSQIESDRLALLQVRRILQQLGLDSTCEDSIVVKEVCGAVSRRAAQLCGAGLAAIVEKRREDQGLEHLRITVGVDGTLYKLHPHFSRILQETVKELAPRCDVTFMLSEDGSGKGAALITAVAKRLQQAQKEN

[5] = target: T2, Hexokinase-1 (Homo sapiens, UniProt P19367); assay: SAR analysis of small molecule inhibitors of hexokinase domain containing I (HKDC1) in the hexokinase 1 selectivity assay. [Related pubchem assays (depositor defined):AID493160, AID493190]; type: functional
T2 sequence (P19367 whole entry): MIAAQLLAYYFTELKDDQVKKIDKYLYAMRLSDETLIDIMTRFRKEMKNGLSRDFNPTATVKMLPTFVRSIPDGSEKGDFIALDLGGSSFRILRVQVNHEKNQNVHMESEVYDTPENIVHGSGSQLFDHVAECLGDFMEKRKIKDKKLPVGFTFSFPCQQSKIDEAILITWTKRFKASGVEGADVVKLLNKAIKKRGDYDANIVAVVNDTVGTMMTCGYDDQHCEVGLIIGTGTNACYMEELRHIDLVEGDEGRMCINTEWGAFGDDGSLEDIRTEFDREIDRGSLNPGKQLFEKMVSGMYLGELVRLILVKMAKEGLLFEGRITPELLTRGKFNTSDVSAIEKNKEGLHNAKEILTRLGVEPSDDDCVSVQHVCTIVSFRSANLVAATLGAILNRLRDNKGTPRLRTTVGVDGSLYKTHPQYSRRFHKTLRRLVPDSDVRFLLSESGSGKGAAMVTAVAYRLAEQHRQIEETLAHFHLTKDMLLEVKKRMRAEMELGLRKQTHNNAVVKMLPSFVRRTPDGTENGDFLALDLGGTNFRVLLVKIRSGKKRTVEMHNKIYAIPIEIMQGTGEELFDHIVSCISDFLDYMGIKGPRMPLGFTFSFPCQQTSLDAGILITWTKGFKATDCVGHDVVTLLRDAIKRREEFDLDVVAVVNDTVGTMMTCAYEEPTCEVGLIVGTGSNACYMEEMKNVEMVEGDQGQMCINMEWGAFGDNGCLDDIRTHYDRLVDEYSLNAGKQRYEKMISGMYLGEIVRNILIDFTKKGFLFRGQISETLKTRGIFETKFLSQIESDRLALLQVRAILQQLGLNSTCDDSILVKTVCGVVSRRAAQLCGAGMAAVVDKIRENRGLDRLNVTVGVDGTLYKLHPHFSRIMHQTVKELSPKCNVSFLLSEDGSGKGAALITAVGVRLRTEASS

[6] = target: Beta-2 adrenergic receptor (Homo sapiens, UniProt P07550); assay: beta2AR agonists driving receptor internalization, dose response, cell-based, FAP fluorogen, flow cytometry, cherry pick 1 (AID 588763); type: functional
[7] = target: Mu-type opioid receptor (Homo sapiens, UniProt P35372); type: functional, cell-based;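 further: U2OS cells with beta-arrestin recruitment to OPRM1 by beta-gal complementation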
[8] = target: 5-hydroxytryptamine receptor 2A (Mus musculus, UniProt P35363); type: functional, cell-based;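 further: CHO-K1 cells with tagged receptor and beta-arrestin; agonist potency measured as compound-induced activation of the receptor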
[9] = target: T3, Small ubiquitin-related modifier 1 (Homo sapiens, UniProt P63165); assay: inhibitors of SUMO1 partner interactions, dose response, biochemical, FRET (AID 624383); type: functional; conditions: read-out: IC50_Mean
[10] = target: DNA dC->dU-editing enzyme APOBEC-3A (Homo sapiens, UniProt P31941); assay: APOBEC3A DNA deaminase inhibitors, dose response, biochemical (AID 504722); type: functional
[11] = target: DNA dC->dU-editing enzyme APOBEC-3G (Homo sapiens, UniProt Q9HC16); assay: Dose Response confirmation of small molecule APOBEC3G DNA Deaminase Inhibitors via a fluorescence-based single-stranded DNA deaminase assay. [Related pubchem assays (depositor defined):AID493012, AID493028]; type: functional
[12] = target: T4, Carboxy-terminal domain RNA polymerase II polypeptide A small phosphatase 1 (Homo sapiens, UniProt Q9GZU7); assay: inhibitors of CTDSP1, concentration-response testing, biochemical assay, absorbance-based, actives from ultra-high-throughput screening (AID 540297); type: functional
T4 sequence (Q9GZU7 whole entry): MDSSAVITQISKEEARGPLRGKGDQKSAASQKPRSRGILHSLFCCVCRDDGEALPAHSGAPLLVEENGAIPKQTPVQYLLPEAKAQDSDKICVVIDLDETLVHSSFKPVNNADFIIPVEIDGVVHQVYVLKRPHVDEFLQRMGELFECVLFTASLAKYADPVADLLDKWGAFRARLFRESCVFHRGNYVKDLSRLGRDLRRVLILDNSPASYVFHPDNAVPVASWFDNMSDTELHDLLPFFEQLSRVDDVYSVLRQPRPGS

[13] = target: Beta-adrenergic receptor kinase 1 (Homo sapiens, UniProt P25098); assay: aptamer displacement from bead-bound GRK2 – biochemical, cherry pick 1, bead flow cytometry, dose response (AID 504500)
[14] = THP-1 cell cytotoxicity, dose response, cytotoxicity control for Vif-APOBEC3G degradation inhibitor project, THP-1 cells (AID 1117359); type: functional; conditions: Human immunodeficiency virus 1, THP-1
[15] = target: T3, Small ubiquitin-related modifier 1; assay: inhibitors of SUMO1 peptide binding, dose response, biochemical, fluorescence polarization, uHTS hits (AID 624382); type: functional; conditions: read-out: IC50_Mean
[16] = inhibitors of firefly luciferase expression or activity, dose response, H4 neuroglioma cells, luminescence (AID 1990); type: functional, cell-based
[17] = test system: BJ; assay: cytotoxicity toward BJ-TERT fibroblasts, dose response, cell-based, RAS-independent, luminescence (AID 1933); type: functional; conditions: Homo sapiens
[18] = target: T5, Heat shock factor protein 1 (Mus musculus, UniProt P38532); assay: inhibition of MG132-induced HSE-luciferase signal, confirmation, cell-based, NIH3T3, luminescence, dose retest (AID 2382); type: functional;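 further: NIH3T3 fibroblasts with HSF1-driven luciferase reporter stressed by proteasome inhibitor MG132; luminescence from HSF1-driven luciferase expression after 8 hours of MG132 stress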
T5 sequence (P38532 whole entry): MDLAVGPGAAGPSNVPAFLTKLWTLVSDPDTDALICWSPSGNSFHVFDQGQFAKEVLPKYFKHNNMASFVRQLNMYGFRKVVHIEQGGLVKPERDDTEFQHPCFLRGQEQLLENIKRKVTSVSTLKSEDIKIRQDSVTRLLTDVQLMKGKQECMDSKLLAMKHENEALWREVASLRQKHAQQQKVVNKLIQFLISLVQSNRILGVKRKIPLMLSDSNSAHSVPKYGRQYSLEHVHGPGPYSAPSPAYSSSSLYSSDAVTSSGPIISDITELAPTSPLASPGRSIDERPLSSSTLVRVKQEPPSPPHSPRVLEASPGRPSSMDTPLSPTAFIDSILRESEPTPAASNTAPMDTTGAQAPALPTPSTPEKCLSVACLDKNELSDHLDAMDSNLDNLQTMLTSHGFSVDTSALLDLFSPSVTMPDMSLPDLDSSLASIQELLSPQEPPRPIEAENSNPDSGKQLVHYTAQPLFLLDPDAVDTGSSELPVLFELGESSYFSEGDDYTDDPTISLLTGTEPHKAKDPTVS

[19] = NIH-3T3 fibroblast cytotoxicity, dose response, cytotoxicity control, cell-based, fluorescence, Alamar Blue, secondary assay (AID 2327); type: functional;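 further: NIH-3T3 mouse fibroblasts cultured with fluconazole at 8 µg/mL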
[20] = target: Heat shock protein HSP 90-alpha (Homo sapiens, UniProt P07900); type: functional, organism-based
[21] = inhibitors of clade B AD8 Env fusion, dose response, cell-based, cherry-pick (AID 652062); type: functional;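 further: luciferase signal from cell-cell fusion driven by HIV-1 clade B AD8 Env; potency is for inhibitors of fusion seen as a drop in luminescence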
[22] = off-target signal loss in HeLa-CEM21 co-culture – HeLa F-luc CTL cells, cherry-picked, counter-screen for HIV-1 Env fusion inhibitor project, dose response (AID 652040); type: functional, cell-based;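 further: potency for signal decrease marking cytotoxic or nonspecific inhibition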
[23] = C. albicans growth with fluconazole, confirmation, fluorescence, retest (AID 2467); type: functional, cell-based
[24] = test system: BJ; assay: cytotoxicity toward BJ-TERT-LT-ST fibroblasts, dose response, cell-based, RAS-independent, luminescence (AID 1935); type: functional; conditions: Homo sapiens;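 further: BJ fibroblasts immortalized with TERT plus LT and ST oncogenes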
[25] = CEM21 lymphoblast cell cytotoxicity, dose response, cytotoxicity control for viral fusion inhibitor project, CellTiter-Glo luminescence, cherry-picked (AID 652042); type: functional, cell-based;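 further: potency for signal decrease meaning cytotoxicity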
[26] = Luminescence Cell-Based Dose Response HTS to Identify Inhibitors of 5'UTR Stem-Loop Driven Prion Protein mRNA Translation in H4 Neuroglioblastoma Cells. [Related pubchem assays: 1827 (Project Summary), 1813 (Primary HTS)]; type: functional
[27] = target: T6, V-type proton ATPase subunit c' (Saccharomyces cerevisiae S288c, UniProt P32842); assay: Dose Response of Small Molecules that Regulate V-ATPase Proton Transport in Yeast using pHLuorin, Cherry Pick 2.; type: functional; conditions: read-out: EC50_MICROM
[28] = inhibitors of HIV Env-driven cell fusion, dose response, cherry-pick (AID 652057); type: functional, cell-based
[29] = cytotoxicity in HEK-293T cells, dose response, cytotoxicity control for TCR NF-kB inhibitor project, luminescence, T-cell screen hits (AID 489026); type: functional, cell-based;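 further: cells exposed to compound about 14 hours before the viability readout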
[30] = test system: BJ; assay: cytotoxicity toward Ras-transformed BJeLR fibroblasts, dose response, cell-based, alamar blue fluorescence, cherrypicked samples (AID 2631); type: functional; conditions: Homo sapiens;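 further: confirmatory dose-response assay in RAS-dependent BJ fibroblasts engineered with TERT, LT and ST, with cytotoxicity read by fluorescence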
[31] = Luminescence-based dose response cell-based high throughput screening assay for cytotoxic compounds using the IEC-6 intestinal epithelial cell line. [Related pubchem assays: 1858 (Summary AID.), 1825 (Counterscreen.), 1907 (Confirmation screen.)]; type: functional
[32] = inhibitors of SNCA 5'UTR-driven reporter translation, confirmation, H4 neuroglioma cells, luminescence (AID 1988); type: functional, cell-based
[33] = cytotoxicity toward DRD oncogenic fibroblasts, dose response, cell-based, non-viral oncogenic, luminescence (AID 1934); type: functional; conditions: Homo sapiens
[34] = test system: BJ; assay: cells; type: functional, cell-based; conditions: Homo sapiens
[35] = ZM109 Env clade C HIV-1 fusion inhibitors, dose response, HeLa effector, CEM target cells, luciferase, cherry-pick (AID 652058); type: functional, cell-based
[36] = target: T7, Fatty acid synthase (Homo sapiens, UniProt P49327); assay: FAS thioesterase domain inhibitors, dose response, biochemical, kinetic fluorescence intensity (AID 624326); type: functional;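 further: rate of fluorescence rise from hydrolysis of a fluorogenic O-methyl fluorescein ester substrate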
[37] = target: T7, Fatty acid synthase; assay: FAS thioesterase domain inhibitors, dose response, biochemical, endpoint fluorescence intensity, uHTS hits (AID 624327); type: functional;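 further: fluorescence from hydrolysis of an O-methyl fluorescein acyl ester substrate by the enzyme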
[38] = target: Mitochondrial peptide methionine sulfoxide reductase (Bos taurus, UniProt P54149); type: functional;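 further: absorbance read-out, biochemical high-throughput dose-response screen for MsrA inhibitors, confirmatory; recombinant bovine MsrA coupled to E. coli TrxB with NADPH and selenocystamine; potency is for inhibitors of MsrA activity on DMSO substrate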
[39] = target: T6, V-type proton ATPase subunit c'; assay: Dose Response of Small Molecules that Regulate V-ATPase Proton Transport in Yeast using pHLuorin, Cherry Pick 1. [Related pubchem assays (depositor defined):AID504622]; type: functional

T6 sequence (P32842 whole entry, the tested form may be a part): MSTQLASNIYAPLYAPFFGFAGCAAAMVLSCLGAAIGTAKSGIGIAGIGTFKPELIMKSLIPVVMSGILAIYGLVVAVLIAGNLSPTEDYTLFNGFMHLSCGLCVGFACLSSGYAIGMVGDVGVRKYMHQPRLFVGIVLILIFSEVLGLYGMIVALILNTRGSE
T7 sequence (P49327 whole entry, the tested form may be a part): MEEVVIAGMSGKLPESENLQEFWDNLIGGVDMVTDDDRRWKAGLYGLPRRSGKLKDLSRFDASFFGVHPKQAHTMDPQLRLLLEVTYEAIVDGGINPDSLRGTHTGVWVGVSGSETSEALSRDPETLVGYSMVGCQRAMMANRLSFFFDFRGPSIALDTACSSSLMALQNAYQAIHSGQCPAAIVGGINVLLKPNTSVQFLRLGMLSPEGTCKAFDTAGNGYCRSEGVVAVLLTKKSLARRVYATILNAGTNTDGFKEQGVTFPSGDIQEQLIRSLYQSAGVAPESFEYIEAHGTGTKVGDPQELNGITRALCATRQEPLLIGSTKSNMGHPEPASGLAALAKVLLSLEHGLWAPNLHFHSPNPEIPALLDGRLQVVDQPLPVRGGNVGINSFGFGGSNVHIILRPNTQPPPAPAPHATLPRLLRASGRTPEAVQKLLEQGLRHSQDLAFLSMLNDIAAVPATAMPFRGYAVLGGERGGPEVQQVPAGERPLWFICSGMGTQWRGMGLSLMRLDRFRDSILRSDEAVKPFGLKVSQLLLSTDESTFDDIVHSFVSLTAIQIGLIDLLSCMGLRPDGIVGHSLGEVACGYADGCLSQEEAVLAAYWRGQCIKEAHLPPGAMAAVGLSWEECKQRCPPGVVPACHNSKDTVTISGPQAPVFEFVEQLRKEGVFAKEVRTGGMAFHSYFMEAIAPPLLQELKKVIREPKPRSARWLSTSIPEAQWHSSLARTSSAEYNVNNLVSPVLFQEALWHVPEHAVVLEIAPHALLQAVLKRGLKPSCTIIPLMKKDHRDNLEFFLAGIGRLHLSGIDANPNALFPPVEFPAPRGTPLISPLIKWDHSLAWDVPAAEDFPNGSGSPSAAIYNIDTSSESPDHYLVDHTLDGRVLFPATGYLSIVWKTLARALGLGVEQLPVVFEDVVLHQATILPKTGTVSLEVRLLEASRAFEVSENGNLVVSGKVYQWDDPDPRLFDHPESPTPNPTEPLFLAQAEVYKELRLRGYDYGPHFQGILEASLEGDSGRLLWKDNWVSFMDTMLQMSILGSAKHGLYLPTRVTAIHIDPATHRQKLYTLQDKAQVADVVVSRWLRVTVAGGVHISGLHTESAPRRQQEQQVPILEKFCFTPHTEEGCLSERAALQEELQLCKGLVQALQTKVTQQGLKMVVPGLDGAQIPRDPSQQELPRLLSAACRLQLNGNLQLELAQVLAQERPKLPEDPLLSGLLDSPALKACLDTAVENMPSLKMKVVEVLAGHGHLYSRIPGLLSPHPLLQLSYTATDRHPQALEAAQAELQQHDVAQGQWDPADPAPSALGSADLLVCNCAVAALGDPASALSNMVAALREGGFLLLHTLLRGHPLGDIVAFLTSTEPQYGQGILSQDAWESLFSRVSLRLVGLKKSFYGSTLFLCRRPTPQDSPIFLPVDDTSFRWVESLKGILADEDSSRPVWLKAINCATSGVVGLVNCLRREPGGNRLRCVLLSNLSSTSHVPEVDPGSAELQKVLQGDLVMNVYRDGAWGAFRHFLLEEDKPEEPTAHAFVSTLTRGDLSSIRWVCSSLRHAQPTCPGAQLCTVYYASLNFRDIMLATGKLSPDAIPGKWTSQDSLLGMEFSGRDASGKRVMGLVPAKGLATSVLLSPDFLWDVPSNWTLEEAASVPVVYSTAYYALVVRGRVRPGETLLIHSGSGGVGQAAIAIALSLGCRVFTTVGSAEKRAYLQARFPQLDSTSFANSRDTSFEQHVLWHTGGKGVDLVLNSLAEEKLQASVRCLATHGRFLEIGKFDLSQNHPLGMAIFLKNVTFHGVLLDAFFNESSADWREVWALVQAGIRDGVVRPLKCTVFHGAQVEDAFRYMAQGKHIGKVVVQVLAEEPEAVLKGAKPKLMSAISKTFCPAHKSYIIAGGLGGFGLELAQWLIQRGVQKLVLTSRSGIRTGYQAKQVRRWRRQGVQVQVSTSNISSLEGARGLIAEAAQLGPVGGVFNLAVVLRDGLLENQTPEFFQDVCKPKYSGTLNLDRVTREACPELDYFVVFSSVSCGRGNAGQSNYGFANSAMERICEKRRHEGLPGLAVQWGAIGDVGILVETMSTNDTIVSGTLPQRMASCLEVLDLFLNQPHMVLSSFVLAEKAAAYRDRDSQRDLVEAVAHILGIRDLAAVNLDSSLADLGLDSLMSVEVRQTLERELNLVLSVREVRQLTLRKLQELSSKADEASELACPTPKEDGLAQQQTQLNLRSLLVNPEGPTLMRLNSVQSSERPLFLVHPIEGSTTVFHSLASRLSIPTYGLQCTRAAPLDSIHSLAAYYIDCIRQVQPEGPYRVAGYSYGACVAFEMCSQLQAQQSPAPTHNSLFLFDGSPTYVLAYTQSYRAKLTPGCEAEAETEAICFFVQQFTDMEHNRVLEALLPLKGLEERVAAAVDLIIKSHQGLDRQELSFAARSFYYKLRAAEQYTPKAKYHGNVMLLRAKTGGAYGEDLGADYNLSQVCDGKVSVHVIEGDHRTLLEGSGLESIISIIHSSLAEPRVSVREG
T3 sequence (P63165 whole entry): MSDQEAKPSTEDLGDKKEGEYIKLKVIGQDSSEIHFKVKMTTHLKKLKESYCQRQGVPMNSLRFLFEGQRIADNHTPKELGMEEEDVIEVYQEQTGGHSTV
Sequence of Mitochondrial peptide methionine sulfoxide reductase (P54149 whole entry): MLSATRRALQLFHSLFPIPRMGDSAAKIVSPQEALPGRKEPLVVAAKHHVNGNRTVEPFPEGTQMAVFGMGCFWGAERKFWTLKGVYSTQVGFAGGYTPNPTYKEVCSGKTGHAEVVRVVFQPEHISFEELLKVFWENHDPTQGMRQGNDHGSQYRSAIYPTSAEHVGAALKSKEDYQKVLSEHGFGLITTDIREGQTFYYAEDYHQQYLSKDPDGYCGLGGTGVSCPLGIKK
Sequence of Beta-2 adrenergic receptor (P07550 whole entry): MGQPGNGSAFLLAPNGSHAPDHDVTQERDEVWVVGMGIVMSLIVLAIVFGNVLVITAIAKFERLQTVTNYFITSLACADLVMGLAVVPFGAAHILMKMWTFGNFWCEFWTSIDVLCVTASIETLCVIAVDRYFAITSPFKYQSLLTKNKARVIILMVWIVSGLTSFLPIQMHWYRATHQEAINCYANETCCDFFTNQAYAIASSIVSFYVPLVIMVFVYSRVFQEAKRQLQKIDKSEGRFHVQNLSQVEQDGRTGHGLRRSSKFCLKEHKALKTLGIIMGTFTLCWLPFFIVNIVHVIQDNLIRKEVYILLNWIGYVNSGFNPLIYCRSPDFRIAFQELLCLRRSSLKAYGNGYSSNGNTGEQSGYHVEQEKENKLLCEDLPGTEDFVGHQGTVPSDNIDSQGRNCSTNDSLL
Sequence of DNA topoisomerase (A0A2S9PM60 whole entry): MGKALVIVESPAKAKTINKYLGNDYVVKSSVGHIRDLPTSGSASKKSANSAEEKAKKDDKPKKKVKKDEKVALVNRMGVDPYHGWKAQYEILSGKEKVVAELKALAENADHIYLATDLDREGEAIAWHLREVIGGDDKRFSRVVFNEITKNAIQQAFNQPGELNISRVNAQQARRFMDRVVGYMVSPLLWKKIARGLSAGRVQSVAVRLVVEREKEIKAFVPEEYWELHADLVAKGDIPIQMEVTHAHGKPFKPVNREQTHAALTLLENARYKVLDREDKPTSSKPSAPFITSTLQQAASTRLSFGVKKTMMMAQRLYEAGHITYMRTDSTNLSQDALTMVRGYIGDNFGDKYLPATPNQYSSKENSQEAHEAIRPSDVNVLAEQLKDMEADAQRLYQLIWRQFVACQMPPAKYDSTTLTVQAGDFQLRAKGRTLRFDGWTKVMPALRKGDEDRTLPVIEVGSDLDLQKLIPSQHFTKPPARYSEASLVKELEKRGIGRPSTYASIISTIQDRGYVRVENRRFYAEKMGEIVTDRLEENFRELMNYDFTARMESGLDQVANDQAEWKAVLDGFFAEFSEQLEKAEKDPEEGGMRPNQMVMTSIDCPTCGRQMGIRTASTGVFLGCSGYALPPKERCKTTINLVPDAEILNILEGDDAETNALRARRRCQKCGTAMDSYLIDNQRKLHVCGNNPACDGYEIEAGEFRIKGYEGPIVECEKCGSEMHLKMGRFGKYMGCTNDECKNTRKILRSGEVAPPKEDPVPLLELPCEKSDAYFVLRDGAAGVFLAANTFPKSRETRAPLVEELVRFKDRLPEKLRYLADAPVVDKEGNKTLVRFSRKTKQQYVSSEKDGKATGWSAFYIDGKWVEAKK
Sequence of Beta-adrenergic receptor kinase 1 (P25098 whole entry): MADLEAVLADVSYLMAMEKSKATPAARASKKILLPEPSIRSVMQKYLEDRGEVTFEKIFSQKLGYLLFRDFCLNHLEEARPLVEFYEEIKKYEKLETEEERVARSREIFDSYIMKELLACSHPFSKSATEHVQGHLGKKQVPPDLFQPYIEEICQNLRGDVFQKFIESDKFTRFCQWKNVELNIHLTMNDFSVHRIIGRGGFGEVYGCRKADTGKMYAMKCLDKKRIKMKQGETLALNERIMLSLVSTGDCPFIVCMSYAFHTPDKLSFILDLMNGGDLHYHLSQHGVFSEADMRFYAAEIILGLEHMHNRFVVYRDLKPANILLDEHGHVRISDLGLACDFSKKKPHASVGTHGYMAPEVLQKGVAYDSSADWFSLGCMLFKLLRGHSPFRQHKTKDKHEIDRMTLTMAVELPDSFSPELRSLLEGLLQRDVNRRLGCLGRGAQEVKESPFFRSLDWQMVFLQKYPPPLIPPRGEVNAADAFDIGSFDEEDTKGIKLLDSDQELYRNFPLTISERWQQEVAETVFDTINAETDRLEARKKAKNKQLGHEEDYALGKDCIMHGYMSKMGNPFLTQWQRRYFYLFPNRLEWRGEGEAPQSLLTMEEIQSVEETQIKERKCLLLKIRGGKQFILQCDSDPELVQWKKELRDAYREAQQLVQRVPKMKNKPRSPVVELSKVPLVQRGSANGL

Cc1cc(NC(=O)c2cc(-c3ccccc3)on2)n(-c2ccccc2)n1
active: AC50 [1] 4.16 µM

Cc1cccc(NC(=O)c2ccc3c(c2)OCCO3)n1
active: AC50 [2] 94.1 µM | AC50 [3] 10.2 µM

Cc1ccccc1/C=C/c1nc2ccccc2c(=O)n1Cc1ccccc1
inactive: IC50 [4] > 80 µM | IC50 [5] > 80 µM

CC(=O)N1CCc2cc(C(=O)CN3CCN(c4cccc(Cl)c4)CC3)ccc21
active: EC50 [6] 0.0472 µM | EC50 [8] 0.133 µM
inactive: EC50 [7] 92.5 µM

C=C(C)C(=O)Nc1cccc(C2=NOC3(C2)C[C@@H](C(N)=O)N(C(=O)CC(c2ccccc2)c2ccccc2)C3)c1 (some centres undefined)
inactive: IC50 [10] > 100 µM | IC50 [15] > 66.6 µM
active: IC50 [9] 5.4 µM | IC50 [11] 15.3 µM | IC50 [12] 6.38 µM | EC50 [13] 1.94 µM | CC50 [14] > 40 µM

CCOC(=O)NN=C1c2ccccc2-c2nc3nonc3nc21
inconclusive: EC50 [24] 1.35 µM | EC50 [34] 0.587 µM
active: EC50 [16] 0.234 µM | EC50 [17] 2.33 µM | EC50 [18] 3.64 µM | EC50 [19] 1.71 µM | AC50 [20] 1.26 µM | AC50 [21] 3.36 µM | AC50 [22] 3.56 µM | EC50 [23] 0.083 µM | AC50 [25] 1.7 µM | EC50 [26] 0.593 µM | EC50 [27] 2.37 µM | AC50 [28] 4.41 µM | IC50 [29] 3.2 µM | EC50 [30] 1.86 µM | IC50 [31] 0.223 µM | EC50 [32] 0.131 µM | EC50 [33] 2.39 µM | AC50 [35] 2.96 µM | IC50 [36] 0.859 µM | IC50 [37] 1.67 µM | EC50 [39] 27.1 µM
inactive: IC50 [38] 155 µM
